Test results published in patent US9765054B2, “Histone deacetylase inhibitors and compositions and methods of use thereof” (CHDI Foundation, Inc., priority 2011, dated 2017).

Experiments:
[1] = biological target: human catalytic domain HDAC4 protein (Homo sapiens, UniProt P56524, A743G/DEL730-739/DEL742-742); assay: Inhibition of HDAC4 catalytic domain enzymatic activity, Boc-Lys(Tfa)-AMC substrate, fluorescence; details: Class IIa selective substrate Boc-Lys(Tfa)-AMC, read-out: Biochemical HDAC-4 IC50;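 further: trypsin releases AMC from deacetylated substrate, fluorescence tracks enzyme activity, 15 min reaction at 37 °C, 100% activity defined by DMSO-only control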
[2] = tested on: cellular histone deacetylase enzymatic activity in Jurkat E6-1 cells; assay: Inhibition of cellular HDAC activity, Boc-Lys(Tfa)-AMC substrate, in Jurkat E6-1 cells; format: cell-based; details: Homo sapiens, Class IIa selective substrate Boc-Lys(Tfa)-AMC
Text: The potency of Class IIa Histone Deacetylase (HDAC) inhibitors is quantified by measuring the cellular histone deacetylase enzymatic activity using the Class IIa selective substrate, Boc-Lys(Tfa)-AMC. After penetration in Jurkat E6-1 cells, the substrate is deacetylated to Boc-Lys-AMC. After cell lysis and cleavage by trypsin, the fluorophore AMC is released from the deacetylated substrate only. The fluoresence of the sample is directly related to the histone deacetylase activity in the sample.
Jurkat E6.1 Cell Culture and Plating.
Jurkat E6.1 cells are cultured according to standard cell culture protocols in Jurkat E6.1 Growth Media (RPMI without phenol red, 10% FBS, 10 mM HEPES, and 1 mM Sodium Pyruvate). Jurkat E6.1 cells are counted using a Coulter Counter and resuspended in Jurkat E6.1 growth media at a concentration of 75,000 cells/35 μl. 35 μl or 75,000 cells is seeded into Greiner microtitre assay plates. The plates are then incubated at 37° C. and 5% CO2 while other assay components are being prepared.
Serially Dilute HDAC Inhibitor Compounds.
Serial dilutions of the HDAC inhibitors and control reference compound (1-(5-(3-((4-(1,3,4-oxadiazol-2-yl)phenoxy)methyl)-1,2,4-oxadiazol-5-yl)thiophen-2-yl)-2,2,2-trifluoroethanone) are made by first resuspending the lyophilized compound to a final concentration of 10 mM in 100% DMSO. Stocks of 70 μl aliquots of the 10 mM compound in DMSO are prepared and stored at −20° C. From one stock aliquot of each compound to be tested and the reference compound, a 16-point serial dilution is prepared according to Table 7 using a 125 μl 16-channel Matrix multi-channel pipette.
2 μl (200×) of each diluted solution and each control (full activity: 100% DMSO alone or full inhibition 1 mM) is stamped into V-bottom polypropylene 384-well compound plates using either the Bravo, Janus, or […] 16-channel Matrix multi-channel pipette. Each well with the 200× compound solution is diluted 1:20 by the addition of 38 μl Jurkat assay buffer+DMSO (9.5% DMSO, RPMI without phenol red, 0.09% FBS, 9 mM Hepes, and 0.9 mM Sodium Pyruvate equilibrated to room temperature)
Prepare 5× (500 μM) Boc-Lys(Tfa)-AMC Substrate.
5× (500 μM) substrate is prepared just prior to the addition to the assay. The 5× substrate is prepared by diluting a 100 mM Boc-Lys(Tfa)-AMC in DMSO solution 1:200 by adding it drop-wise to Jurkat assay medium (RPMI without phenol red, 0.1% FBS, 10 mM Hepes, and 1 mM Sodium Pyruvate equilibrated to 37° C.) while vortexing at slow speed to prevent precipitation.
10 ml of 3× lysis buffer is prepared with 8.8 ml of 3× stock lysis buffer (50 mM Tris-HCl, pH 8.0, 137 mM NaCl, 2.7 mM KCl, 1 mM MgCl2, 1% Nonidet P40 Substitute equilibrated to room temperature) and 1.2 ml of 3 mg/ml Trypsin equilibrated to room temperature.
5 μl of each solution of 1:20 diluted compound from above is transferred to the Greiner microtitre assay plates with 75,000 cells/well using the Bravo. Cells are then incubated for 2 hours at 37° C. and 5% CO2. The assay is then started by adding 10 μl of 5× (500 μM) substrate to the assay plate using either the Bravo or 16-channel Matrix multi-channel pipette. The cells are then incubated for 3 hours at 37° C. and 5% CO2. Next, 25 μl of 3× lysis buffer is added to each well using either the 125 μl 16 channel pipette or the Bravo. The assay plate is then incubated overnight (15-16 hours) at 37° C. and 5% CO2. The following day, the plates are shaken on an orbital shaker for 1 minute at 900 rpm. Finally the top read fluorescence (Excitation: 355 nm, Emission: 460 nm) is measured using PerkinElmer EnVision.

Q: For O=C(NO)[C@@H]1[C@H](c2ccccc2)[C@H]1c1cccc(N2CCN3CCCC3C2)c1 (relative stereo) [Compound 56f, (1R*,2R*,3R*)-2-(3-(Hexahydropyrrolo[1,2-a]pyrazin-2(1H)-yl)phenyl)-N-hydroxy-3-phenylcyclopropanecarboxamide], which IC50 [1] is on record?
A: Its IC50 is 630 nM.

Q: And the IC50 [2]?
A: Its IC50 is 1850 nM.

Q: What does the source list for O=C(NO)[C@H]1[C@H](c2cc(Cl)c3c(c2)OCCO3)[C@H]1c1ccccc1F [Compound 25f, (1S,2R,3R)-2-(8-Chloro-2,3-dihydrobenzo[b][1,4]dioxin-6-yl)-3-(2-fluorophenyl)-N-hydroxycyclopropanecarboxamide]?
A: IC50 [1]: 30 nM; IC50 [2]: 240 nM

Q: How did the IC50 [1] turn out when O=C(NO)[C@@H]1[C@H](c2ccccc2)[C@H]1c1cnc2ccccn12 [Compound 115, (1R,2R,3R)—N-hydroxy-2-(imidazo[1,2-a]pyridin-3-yl)-3-phenylcyclopropanecarboxamide] was run?
A: Its IC50 is 550 nM.

Q: What about the IC50 [2] of the same compound?
A: The IC50 was 6660 nM.

Q: How did the IC50 [1] turn out when O=C(NO)[C@H]1[C@H](c2ccc(NCC(F)(F)F)nc2)[C@H]1c1ccccc1F [Compound 106, (1S,2R,3R)-2-(2-Fluorophenyl)-N-hydroxy-3-(6-((2,2,2-trifluoroethyl)amino)pyridin-3-yl)cyclopropanecarboxamide] was run?
A: Its IC50 is 170 nM.

Q: And the IC50 [2]?
A: Its IC50 is 1410 nM.

Q: Which IC50 [1] does the source give for O=C(NO)[C@H]1[C@H](c2ccccc2)[C@H]1C1CCCCC1 (racemic) [Compound 5, (1R*,2R*,3R*)-2-Cyclohexyl-N-hydroxy-3-phenylcyclopropanecarboxamide] here?
A: Its IC50 is 6220 nM.

Q: And the IC50 [2]?
A: The IC50 was 36900 nM.

Q: O=C(NO)[C@@H]1[C@H](c2ccccc2)[C@H]1c1ccc(-c2ccc(-n3c4ccccc4c4ccccc43)cc2)cc1 (racemic) [Compound 54b, (1R*,2R*,3R*)-2-(4′-(9H-carbazol-9-yl)-[1,1′-biphenyl]-4-yl)-N-hydroxy-3-phenylcyclopropanecarboxamide] was tested. Which IC50 [1] did it give?
A: The IC50 was 5660 nM.

Q: What about the IC50 [2] of the same compound?
A: The IC50 was 50000 nM.

Q: For Cc1cccc([C@H]2[C@H](C(=O)NO)[C@@H]2c2ccccc2)c1 (racemic) [Compound 18b, (1R*,2R*,3R*)—N-Hydroxy-2-phenyl-3-m-tolylcyclopropanecarboxamide], which IC50 [1] is on record?
A: Its IC50 is 150 nM.

Q: And the IC50 [2]?
A: The IC50 was 2740 nM.

Q: How did the IC50 [1] turn out when Cc1ccc([C@H]2[C@H](C(=O)NO)[C@@H]2c2ccccc2)cc1 (racemic) [Compound 18c, (1R*,2R*,3R*)—N-Hydroxy-2-phenyl-3-p-tolylcyclopropanecarboxamide] was run?
A: Its IC50 is 150 nM.

Q: What about the IC50 [2] of the same compound?
A: The IC50 was 2250 nM.

Q: How did the IC50 [1] turn out when O=C(NO)[C@@H]1[C@H](c2ccccc2)[C@H]1c1ccc(-n2ccnc2)cc1 (racemic) [Compound 42, (1R*,2R*,3R*)-2-(4-(1H-imidazol-1-yl)phenyl)-N-hydroxy-3-phenylcyclopropanecarboxamide] was run?
A: Its IC50 is 200 nM.

Q: And the IC50 [2]?
A: The IC50 was 1630 nM.

Q: How did the IC50 [1] turn out when CN1CCOc2cc(-c3ccc([C@H]4[C@H](C(=O)NO)[C@@H]4c4ccccc4)cc3)ccc21 [Compound 54c, (1R,2R,3R)—N-hydroxy-2-(4-(4-methyl-3,4-dihydro-2H-benzo[b][1,4]oxazin-7-yl)phenyl)-3-phenylcyclopropanecarboxamide] was run?
A: Its IC50 is 260 nM.

Q: What about the IC50 [2] of the same compound?
A: The IC50 was 1430 nM.

Q: How did the IC50 [2] turn out when O=C(NO)[C@@H]1[C@H](c2ccccc2)[C@H]1c1ccc(-c2ncc(Cl)cn2)cc1 [Compound 50j, (1R,2R,3R)-2-(4-(5-Chloropyrimidin-2-yl)phenyl)-N-hydroxy-3-phenylcyclopropanecarboxamide] was run?
A: The IC50 was 420 nM.

Q: With Cc1cnc(-c2ccc([C@H]3[C@H](C(=O)NO)[C@@H]3c3ccccc3)cc2)nc1 (racemic) [Compound 50k, (1R*,2R*,3R*)—N-Hydroxy-2-(4-(5-methylpyrimidin-2-yl)phenyl)-3-phenylcyclopropanecarboxamide] as the compound, how does the IC50 [2] read?
A: Its IC50 is 480 nM.

Q: How did the IC50 [2] turn out when O=C(NO)[C@@H]1[C@H](c2ccccc2)[C@H]1c1ccc(-c2nccc(C(F)(F)F)n2)cc1 (racemic) [Compound 50d, (1R*,2R*,3R*)-2-(4-(4-Trifluoromethylpyrimidin-2-yl)phenyl)-N-hydroxy-3-phenylcyclopropanecarboxamide] was run?
A: Its IC50 is 880 nM.
